Article PMC3548936 (ACS chemical biology, 2012)

How the values were obtained:
in vitro = settings: human
[1] = system: VSV-G pseudotyped HIV particles (WT); assay: microbe, parasite or virus in culture; type: cell-based, HIV-1; settings: Human immunodeficiency virus 1, HOS, read-out: Antiviral IC50 ± SD (EC50), WT
[2] = system: VSV-G pseudotyped HIV particles (IN Y143R); type: cell-based, HIV-1; settings: read-out: Antiviral IC50 ± SD (EC50), Y143R

Structure (SMILES): Cc1nnc(C(=O)NC(C)(C)c2nc(C(=O)NCc3ccc(F)cc3)c(O)c(=O)n2C)o1 [RAL, raltegravir]
- CC50 (in vitro): > 100000 nM
- EC50 [1]: 4 ± 2 nM
- EC50 [2]: 210 ± 10 nM
